Assay results reported in EPA's ToxRefDB 2.

Tests used:
[1] = test system: mouse; settings: Subchronic oral toxicity in rodents, Feed, dose end: 13 week, group: systemic, systemic / in life observation / body weight / body weight
[2] = test system: mouse; settings: Combined chronic toxicity/carcinogenicity, b6c3f1, Oral, Feed, dose end: 24 month, group: systemic
[3] = test system: mouse; settings: Subchronic oral toxicity in rodents, b6c3f1, Feed, dose end: 13 week, group: systemic
[4] = test system: mouse; settings: Chronic toxicity; b6c3f1; Oral; Feed; dose end: 80 week; group: systemic; systemic / in life observation / clinical signs / alopecia + systemic / in life observation / clinical signs / distended abdomens + systemic…
[5] = test system: mouse; settings: Subchronic oral toxicity in rodents, b6c3f1, Feed, dose end: 6 week, group: systemic, systemic / in life observation / mortality / mortality
[6] = test system: rat; settings: Chronic toxicity; other; Oral; Feed; dose end: 74 week; group: systemic; systemic / in life observation / body weight / body weight + systemic / in life observation / clinical signs / convulsions + systemic / in …
[7] = test system: rat; settings: Subchronic oral toxicity in rodents, other, Feed, dose end: 6 week, group: systemic, systemic / in life observation / body weight / body weight + systemic / in life observation / mortality / mortality
[8] = test system: rat; settings: Prenatal developmental toxicity study, sprague dawley, Oral, Gavage/Intubation, dose end: 19 GD
[9] = test system: mouse; settings: Carcinogenicity; cd1; Oral; Feed; dose end: 18 month; group: systemic; systemic / pathology microscopic / bone marrow / hematopoietic cell proliferation + systemic / pathology microscopic / liver / hematopoietic…
[10] = test system: rat; settings: Subchronic oral toxicity in rodents, sprague dawley, Feed, dose end: 90 day
[11] = test system: dog; settings: Chronic toxicity; beagle; Oral; Feed; dose end: 60 week; group: systemic; systemic / clinical chemistry / thyroid stimulating hormone (thyrotropin) (tsh) / thyroid stimulating hormone (=thyrotropin) (tsh) + …
[12] = test system: rat; settings: Combined chronic toxicity/carcinogenicity; sprague dawley; Oral; Feed; dose end: 24 month; group: systemic; systemic / hematology / erythrocyte (rbc) count differential / erythrocyte (rbc) + systemic / hematology / hematocrit (hct) / hematocrit (…
[13] = test system: rat; settings: Multigenerational reproductive toxicity study, sprague dawley, Oral, Feed, dose end: 2 generation
[14] = test system: rat; settings: Prenatal developmental toxicity study, sprague dawley, Oral, Gavage/Intubation, dose end: 19 GD; remark: listed apart in the source
[15] = test system: rat; settings: Combined chronic toxicity/carcinogenicity, sprague dawley, Oral, Feed, dose end: 2 year, group: systemic
[16] = test system: rat; settings: Combined chronic toxicity/carcinogenicity, sprague dawley, Oral, Feed, dose end: 2 year, group: systemic; remark: listed apart in the source
[17] = test system: rat; settings: Subchronic oral toxicity in rodents, sprague dawley, Feed, dose end: 13 week, group: systemic, systemic / clinical chemistry / aspartate aminotransferase (ast/sgot) / aspartate aminotransferase (ast/sgot) + systemic / clinical …
[18] = test system: rat; settings: Multigenerational reproductive toxicity study, sprague dawley, Oral, Feed, dose end: 2 generation; remark: listed apart in the source
[19] = test system: mouse; settings: Combined chronic toxicity/carcinogenicity, cd1, Oral, Feed, dose end: 18 month, group: systemic
[20] = test system: rat; settings: Subchronic oral toxicity in rodents, fischer, Feed, dose end: 90 day, group: systemic
[21] = test system: rat; settings: Prenatal developmental toxicity study, sprague dawley, Oral, Gavage/Intubation, dose end: 15 GD
[22] = test system: mouse; settings: Carcinogenicity, cd1, Oral, Feed, dose end: 78 week, group: systemic
[23] = test system: dog; settings: Chronic toxicity; beagle; Oral; Capsule; dose end: 52 week; group: systemic; systemic / in life observation / clinical signs / defecation (diarrhea) + systemic / in life observation / clinical signs / vomitting + …
[24] = test system: rat; settings: Combined chronic toxicity/carcinogenicity, fischer, Oral, Feed, dose end: 104 week, group: systemic
[25] = test system: dog; settings: Subchronic oral toxicity in nonrodent, beagle, Capsule, dose end: 93 day, group: systemic
[26] = systemic / pathology microscopic / kidney / vacuolization
[27] = systemic / pathology microscopic / kidney / vacuolization + systemic / in life observation / body weight / body weight + systemic / …
[28] = systemic / in life observation / body weight / body weight
[29] = group: developmental, developmental / developmental malformation / bone / short
[30] = group: maternal, systemic / in life observation / body weight / body weight gain + systemic / in life observation / body weight / body weight + systemic / in…
[31] = group: cholinesterase, cholinesterase / cholinesterase / cholinesterase / plasma cholinesterase (che)
[32] = group: systemic, systemic / hematology / erythrocyte (rbc) count differential / erythrocyte (rbc) + systemic / hematology / hemoglobin (hgb) / hemoglobin (…
[33] = group: systemic, systemic / pathology microscopic / blood / focal cellular change
[34] = group: offspring, systemic / in life observation / body weight / offspring (pup) weight + systemic / organ weight / liver / absolute + systemic / organ weight…
[35] = group: parental, systemic / organ weight / spleen / absolute + systemic / organ weight / spleen / relative to body weight + systemic / pathology microscopic…
[36] = group: developmental, developmental / developmental malformation / bone / bent + developmental / developmental malformation / bone / delayed ossification + …
[37] = group: maternal, systemic / in life observation / clinical signs / [other] + systemic / pathology gross / spleen / discolored + systemic / pathology gross / …
[38] = systemic / organ weight / liver / relative to body weight
[39] = systemic / organ weight / liver / relative to body weight + systemic / clinical chemistry / cholesterol / cholesterol
[40] = systemic / organ weight / liver / relative to body weight + systemic / organ weight / thyroid gland / absolute + systemic / pathology gross…
[41] = group: offspring, systemic / in life observation / body weight / offspring (pup) weight
[42] = group: parental, systemic / in life observation / body weight / body weight gain + systemic / in life observation / food consumption / food consumption + …
[43] = group: reproductive, reproductive / offspring survival early / litter size / litter size
[44] = systemic / in life observation / clinical signs / amyloidosis + systemic / organ weight / brain / relative to brain weight + systemic / …
[45] = systemic / organ weight / liver / relative to brain weight + systemic / organ weight / gallbladder / relative to brain weight
[46] = systemic / in life observation / body weight / body weight gain + systemic / organ weight / brain / relative to body weight + systemic / …
[47] = systemic / organ weight / liver / relative to body weight + systemic / clinical chemistry / beta globulin / beta globulin + systemic / …
[48] = group: developmental, developmental / developmental malformation / bone / full supernumerary
[49] = group: maternal, systemic / in life observation / body weight / body weight gain + systemic / in life observation / water consumption / water consumption
[50] = group: maternal, systemic / in life observation / body weight / body weight gain + systemic / in life observation / water consumption / water consumption + …
[51] = systemic / pathology microscopic / stomach / dysplasia
[52] = systemic / clinical chemistry / creatine phosphokinase / creatine phosphokinase + systemic / organ weight / liver / absolute + systemic / …
[53] = systemic / in life observation / clinical signs / defecation (diarrhea) + systemic / in life observation / clinical signs / vomitting + …

O=C(O)c1cccc(Cl)n1 [6-Chloro-2-picolinic acid]
LEL [1]: 800 mg/kg/day
LOAEL [1]: 800 mg/kg/day
NEL [1]: 400 mg/kg/day
NOAEL [1]: 400 mg/kg/day
NOAEL [2, 26]: 300 mg/kg/day
LOAEL ([2]; systemic / pathology microscopic / kidney / vacuolization + systemic / in life observation / body weight / body weight): 900 mg/kg/day
LEL [2, 27]: 900 mg/kg/day
NEL ([2]; systemic / pathology microscopic / liver / carcinoma + systemic / organ weight / liver / absolute + systemic / organ weight / liver / …): 300 mg/kg/day
LEL [3, 28]: 400 mg/kg/day
NEL [3, 28]: 150 mg/kg/day
LOAEL [3, 26]: 900 mg/kg/day
NOAEL [3, 27]: 700 mg/kg/day

ClC1=C(Cl)[C@]2(Cl)[C@H]3[C@H]([C@@H]4C=C[C@H]3C4)[C@@]1(Cl)C2(Cl)Cl [Aldrin]
LEL [4]: 0.45 mg/kg/day
LOAEL [4]: > 0.9 mg/kg/day
NEL [4]: < 0.45 mg/kg/day
NOAEL [4]: ≥ 0.9 mg/kg/day
LEL [5]: 6 mg/kg/day
LOAEL [5]: > 12 mg/kg/day
NEL [5]: 3 mg/kg/day
NOAEL [5]: ≥ 12 mg/kg/day
LEL [6]: 1.5 mg/kg/day
LOAEL [6]: 1.5 mg/kg/day
NEL [6]: < 1.5 mg/kg/day
NOAEL [6]: < 1.5 mg/kg/day
LEL [7]: 8 mg/kg/day
LOAEL [7]: > 16 mg/kg/day
NEL [7]: 4 mg/kg/day
NOAEL [7]: ≥ 16 mg/kg/day

CC(C)OC(=O)Nc1cccc(Cl)c1 [Chlorpropham]
LEL [8, 29]: 1000 mg/kg/day
LOAEL [8, 29]: 1000 mg/kg/day
NEL [8, 29]: 350 mg/kg/day
NOAEL [8, 29]: 350 mg/kg/day
LOAEL ([8]; group: maternal, systemic / in life observation / body weight / body weight gain): 350 mg/kg/day
NEL [8, 30]: 100 mg/kg/day
NOAEL [8, 30]: 100 mg/kg/day
LEL ([8]; group: maternal, systemic / in life observation / body weight / body weight gain + systemic / in life observation / clinical signs / red or crusty deposits …): 350 mg/kg/day
LEL [9]: 519 mg/kg/day
LOAEL [9]: 519 mg/kg/day
NEL [9]: 108 mg/kg/day
NOAEL [9]: 108 mg/kg/day
LEL [10, 31]: 1140 mg/kg/day
LOAEL [10, 31]: > 1140 mg/kg/day
NEL [10, 31]: 279 mg/kg/day
NOAEL [10, 31]: ≥ 1140 mg/kg/day
LOAEL [10, 32]: 276 mg/kg/day
NOAEL [10, 32]: 64.8 mg/kg/day
LEL [10, 33]: 15.9 mg/kg/day
NEL [10, 33]: < 15.9 mg/kg/day
LEL [11]: 5 mg/kg/day
LOAEL [11]: 50 mg/kg/day
NEL [11]: < 5 mg/kg/day
NOAEL [11]: 5 mg/kg/day
LEL [12]: 100 mg/kg/day
LOAEL [12]: 100 mg/kg/day
NEL [12]: 30 mg/kg/day
NOAEL [12]: 30 mg/kg/day
LEL [13, 34]: 150 mg/kg/day
LOAEL [13, 34]: 150 mg/kg/day
NEL [13, 34]: 50 mg/kg/day
NOAEL [13, 34]: 50 mg/kg/day
LEL [13, 35]: 150 mg/kg/day
LOAEL [13, 35]: 150 mg/kg/day
NEL [13, 35]: 50 mg/kg/day
NOAEL [13, 35]: 50 mg/kg/day
LEL [14, 36]: 2000 mg/kg/day
LOAEL [14, 36]: 2000 mg/kg/day
NEL [14, 36]: 400 mg/kg/day
NOAEL [14, 36]: 400 mg/kg/day
LEL [14, 37]: 400 mg/kg/day
LOAEL [14, 37]: 400 mg/kg/day
NEL [14, 37]: 40 mg/kg/day
NOAEL [14, 37]: 40 mg/kg/day

CCC(CC)Nc1c([N+](=O)[O-])cc(C)c(C)c1[N+](=O)[O-] [Pendimethalin]
LOAEL [15, 38]: 51 mg/kg/day
NOAEL [15, 38]: < 51 mg/kg/day
LEL [15, 39]: 51 mg/kg/day
NEL [15, 39]: < 51 mg/kg/day
LEL ([16]; systemic / in life observation / body weight / body weight gain + systemic / pathology gross / liver / accentuated lobular pattern): 25 mg/kg/day
LOAEL [16, 40]: > 250 mg/kg/day
NOAEL [16, 40]: ≥ 250 mg/kg/day
NEL ([16]; systemic / pathology microscopic / thyroid gland / adenoma + systemic / clinical chemistry / albumin / albumin + systemic / clinical …): 5 mg/kg/day
LEL [17]: 7.6 mg/kg/day
LOAEL [17]: 382 mg/kg/day
NEL [17]: < 7.6 mg/kg/day
NOAEL [17]: 39.2 mg/kg/day
LEL [18, 41]: 215 mg/kg/day
LOAEL [18, 41]: 215 mg/kg/day
NEL [18, 41]: 42 mg/kg/day
NOAEL [18, 41]: 42 mg/kg/day
LEL [18, 42]: 173 mg/kg/day
LOAEL [18, 42]: 173 mg/kg/day
NEL [18, 42]: 36 mg/kg/day
NOAEL [18, 42]: 36 mg/kg/day
LEL [18, 43]: 215 mg/kg/day
LOAEL [18, 43]: 215 mg/kg/day
NEL [18, 43]: 42 mg/kg/day
NOAEL [18, 43]: 42 mg/kg/day
LOAEL [19, 44]: 622 mg/kg/day
NOAEL [19, 44]: 62.3 mg/kg/day
LEL [19, 45]: 12.3 mg/kg/day
NEL [19, 45]: < 12.3 mg/kg/day

CCc1nn(C)c(C(=O)NCc2ccc(C(C)(C)C)cc2)c1Cl [Tebufenpyrad]
LOAEL [20, 46]: 29 mg/kg/day
NOAEL [20, 46]: 6.8 mg/kg/day
LEL [20, 47]: 0.7 mg/kg/day
NEL [20, 47]: < 0.7 mg/kg/day
LEL [21, 48]: 90 mg/kg/day
LOAEL [21, 48]: 90 mg/kg/day
NEL [21, 48]: 50 mg/kg/day
NOAEL [21, 48]: 50 mg/kg/day
LEL [21, 49]: 50 mg/kg/day
LOAEL [21, 49]: 50 mg/kg/day
NEL [21, 50]: 15 mg/kg/day
NOAEL [21, 50]: 15 mg/kg/day
LOAEL ([22]; systemic / in life observation / body weight / body weight gain): 64.4 mg/kg/day
NOAEL ([22]; systemic / in life observation / body weight / body weight gain + systemic / in life observation / body weight / body weight + systemic / …): 3.6 mg/kg/day
LEL [22, 51]: 4.2 mg/kg/day
NEL [22, 51]: < 4.2 mg/kg/day
LEL [23]: 6 mg/kg/day
LOAEL [23]: 6 mg/kg/day
NEL [23]: 1 mg/kg/day
NOAEL [23]: 1 mg/kg/day
LEL [24, 52]: 0.21 mg/kg/day
NEL [24, 52]: < 0.21 mg/kg/day
NOAEL [24, 52]: 0.82 mg/kg/day
LOAEL ([24]; systemic / organ weight / liver / absolute + systemic / organ weight / liver / relative to body weight + systemic / clinical chemistry / …): 6.52 mg/kg/day
LOAEL ([25]; systemic / in life observation / clinical signs / defecation (diarrhea) + systemic / in life observation / clinical signs / vomitting): 10 mg/kg/day
LEL [25, 53]: 10 mg/kg/day
NEL [25, 53]: 2 mg/kg/day
NOAEL [25, 53]: 2 mg/kg/day
